From ChEMBL document CHEMBL1909046, “DrugMatrix in vitro pharmacology data”

Key:
Calcitonin receptor = target: T1, Calcitonin receptor (Homo sapiens, UniProt P30988); type: cell membranes, Membrane; conditions: t47d; note: in other assays of this panel Not Active means under 50% inhibition at 10 µM
T1 sequence (P30988 whole entry): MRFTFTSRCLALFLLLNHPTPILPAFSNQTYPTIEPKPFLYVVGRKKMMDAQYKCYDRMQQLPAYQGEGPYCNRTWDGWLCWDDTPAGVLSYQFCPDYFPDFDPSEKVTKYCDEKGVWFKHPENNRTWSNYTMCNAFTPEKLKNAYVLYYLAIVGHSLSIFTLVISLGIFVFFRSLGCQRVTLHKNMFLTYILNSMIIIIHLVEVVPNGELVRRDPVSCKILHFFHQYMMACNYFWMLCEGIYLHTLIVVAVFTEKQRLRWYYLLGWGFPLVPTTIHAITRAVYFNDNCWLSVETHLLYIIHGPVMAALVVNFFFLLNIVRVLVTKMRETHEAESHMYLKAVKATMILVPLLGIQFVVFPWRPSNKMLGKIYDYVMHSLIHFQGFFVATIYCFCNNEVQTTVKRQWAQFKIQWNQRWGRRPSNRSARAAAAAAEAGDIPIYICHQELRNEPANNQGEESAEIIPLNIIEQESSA

[1] = target: T2, Cholecystokinin receptor type A (Homo sapiens, UniProt P32238); type: cell membranes, Membrane; conditions: 1321-n1; note: in other assays of this panel Not Active means under 50% inhibition at 10 µM
T2 sequence (P32238 whole entry): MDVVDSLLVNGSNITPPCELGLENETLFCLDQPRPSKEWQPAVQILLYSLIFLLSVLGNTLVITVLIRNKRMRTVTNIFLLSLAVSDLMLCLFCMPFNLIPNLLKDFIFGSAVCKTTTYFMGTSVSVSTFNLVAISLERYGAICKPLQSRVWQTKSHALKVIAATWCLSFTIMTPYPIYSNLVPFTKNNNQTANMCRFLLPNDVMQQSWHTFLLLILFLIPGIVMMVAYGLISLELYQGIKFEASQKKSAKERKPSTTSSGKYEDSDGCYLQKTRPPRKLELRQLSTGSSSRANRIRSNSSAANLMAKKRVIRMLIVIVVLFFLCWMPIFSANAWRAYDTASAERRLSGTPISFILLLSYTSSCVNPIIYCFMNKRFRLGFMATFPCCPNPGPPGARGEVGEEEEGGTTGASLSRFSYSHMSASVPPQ

[2] = target: Beta-1 adrenergic receptor (Homo sapiens, UniProt P08588); assay: DRUGMATRIX: Adrenergic beta1 radioligand binding (ligand: [125I] Cyanopindolol); type: cell membranes, CHO-K1, Membrane; conditions: cho-k1; Not Active = under 50% inhibition at 10 µM
Beta-1 adrenergic receptor, sequence (P08588 whole entry): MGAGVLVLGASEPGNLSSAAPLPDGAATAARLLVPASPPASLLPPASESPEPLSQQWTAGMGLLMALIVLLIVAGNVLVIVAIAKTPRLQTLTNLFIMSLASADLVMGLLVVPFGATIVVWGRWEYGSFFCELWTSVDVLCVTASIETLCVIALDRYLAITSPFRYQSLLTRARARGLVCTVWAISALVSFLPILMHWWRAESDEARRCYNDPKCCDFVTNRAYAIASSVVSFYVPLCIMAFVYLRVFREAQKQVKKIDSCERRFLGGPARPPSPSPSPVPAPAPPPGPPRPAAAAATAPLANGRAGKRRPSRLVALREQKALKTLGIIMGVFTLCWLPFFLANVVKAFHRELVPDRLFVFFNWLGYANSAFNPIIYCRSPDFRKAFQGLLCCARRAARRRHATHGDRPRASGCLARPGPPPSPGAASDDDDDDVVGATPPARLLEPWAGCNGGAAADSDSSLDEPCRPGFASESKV

[3] = target: Kappa-type opioid receptor (Homo sapiens, UniProt P41145); assay: DRUGMATRIX: Opiate kappa (OP2, KOP) radioligand binding (ligand: [3H] Diprenorphine); type: cell membranes, HEK293, Membrane; conditions: hek293; Not Active = under 50% inhibition at 10 µM
Kappa-type opioid receptor, sequence (P41145 whole entry): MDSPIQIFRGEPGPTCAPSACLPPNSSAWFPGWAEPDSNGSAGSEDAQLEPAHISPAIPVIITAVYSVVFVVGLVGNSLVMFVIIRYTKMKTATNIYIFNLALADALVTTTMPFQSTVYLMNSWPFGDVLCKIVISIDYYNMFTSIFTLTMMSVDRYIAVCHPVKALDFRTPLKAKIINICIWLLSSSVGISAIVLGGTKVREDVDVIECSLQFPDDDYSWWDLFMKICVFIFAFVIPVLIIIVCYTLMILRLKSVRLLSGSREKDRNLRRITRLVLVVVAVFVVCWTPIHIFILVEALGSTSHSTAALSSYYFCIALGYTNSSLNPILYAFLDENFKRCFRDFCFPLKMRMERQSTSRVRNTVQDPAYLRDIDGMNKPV

[4] = DRUGMATRIX: GABAA, Flunitrazepam, Central radioligand binding (ligand: [3H] Flunitrazepam); type: cell membranes, Rattus norvegicus, Wistar, Brain, Membrane; conditions: Not Active = under 50% inhibition at 10 µM
[5] = DRUGMATRIX: Leukotriene, BLT (LTB4) radioligand binding (ligand: [3H]LTB4); type: cell membranes, Membrane; conditions: u-937; Not Active = under 50% inhibition at 10 µM
[6] = target: C-C chemokine receptor type 2 (Homo sapiens, UniProt P41597); type: cell membranes, CHO-K1, Membrane; conditions: cho-k1; note: in other assays of this panel Not Active means under 50% inhibition at 10 µM
C-C chemokine receptor type 2, sequence (P41597 whole entry): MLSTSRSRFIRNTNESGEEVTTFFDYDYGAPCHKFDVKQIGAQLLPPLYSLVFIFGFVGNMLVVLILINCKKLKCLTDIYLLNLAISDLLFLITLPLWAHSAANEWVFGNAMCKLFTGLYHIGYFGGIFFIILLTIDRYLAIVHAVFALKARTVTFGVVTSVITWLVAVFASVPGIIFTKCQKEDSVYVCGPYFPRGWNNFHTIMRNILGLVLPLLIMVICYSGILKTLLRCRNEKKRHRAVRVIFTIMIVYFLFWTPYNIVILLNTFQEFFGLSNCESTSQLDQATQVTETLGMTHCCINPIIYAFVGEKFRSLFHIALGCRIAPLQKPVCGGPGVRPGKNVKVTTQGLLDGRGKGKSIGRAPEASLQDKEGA

[7] = DRUGMATRIX: Glutamate, NMDA, Phencyclidine radioligand binding (ligand: [3H] TCP); type: cell membranes, Rattus norvegicus, Wistar, Cerebral cortex, Membrane; conditions: Not Active = under 50% inhibition at 10 µM
[8] = target: Tyrosine-protein kinase Lck (Homo sapiens, UniProt P06239); assay: DRUGMATRIX: Protein Tyrosine Kinase, LCK enzyme inhibition (substrate: Poly(Glu:Tyr)); type: cell-based, Insect cells; conditions: insect cells; Not Active = under 50% inhibition at 10 µM
Tyrosine-protein kinase Lck, sequence (P06239 whole entry): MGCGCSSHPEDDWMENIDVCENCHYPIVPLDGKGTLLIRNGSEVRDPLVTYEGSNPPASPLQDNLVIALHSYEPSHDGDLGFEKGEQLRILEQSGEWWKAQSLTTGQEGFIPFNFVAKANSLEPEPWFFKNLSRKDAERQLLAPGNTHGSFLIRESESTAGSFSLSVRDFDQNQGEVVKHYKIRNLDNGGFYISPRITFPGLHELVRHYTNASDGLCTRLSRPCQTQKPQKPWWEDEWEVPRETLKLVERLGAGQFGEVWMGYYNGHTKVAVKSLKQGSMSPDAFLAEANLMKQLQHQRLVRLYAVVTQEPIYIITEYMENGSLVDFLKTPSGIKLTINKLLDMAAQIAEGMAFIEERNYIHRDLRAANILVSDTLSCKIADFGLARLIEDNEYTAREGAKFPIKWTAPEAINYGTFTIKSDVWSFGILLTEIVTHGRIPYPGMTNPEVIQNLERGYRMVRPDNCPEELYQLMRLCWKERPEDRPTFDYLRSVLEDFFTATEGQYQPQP

[9] = DRUGMATRIX: GABAA, Muscimol, Central radioligand binding (ligand: [3H] Muscimol); type: cell membranes, Rattus norvegicus, Wistar, Brain, Membrane; conditions: Not Active = under 50% inhibition at 10 µM
[10] = DRUGMATRIX: Phorbol Ester radioligand binding (ligand: [3H] PDBu); type: cell membranes, Mus musculus, ICR, Brain, Membrane; conditions: Not Active = under 50% inhibition at 10 µM
B2 bradykinin receptor = target: T3, B2 bradykinin receptor (Homo sapiens, UniProt P30411); type: cell membranes, Membrane; conditions: chem-1; note: in other assays of this panel Not Active means under 50% inhibition at 10 µM
T3 sequence (P30411 whole entry): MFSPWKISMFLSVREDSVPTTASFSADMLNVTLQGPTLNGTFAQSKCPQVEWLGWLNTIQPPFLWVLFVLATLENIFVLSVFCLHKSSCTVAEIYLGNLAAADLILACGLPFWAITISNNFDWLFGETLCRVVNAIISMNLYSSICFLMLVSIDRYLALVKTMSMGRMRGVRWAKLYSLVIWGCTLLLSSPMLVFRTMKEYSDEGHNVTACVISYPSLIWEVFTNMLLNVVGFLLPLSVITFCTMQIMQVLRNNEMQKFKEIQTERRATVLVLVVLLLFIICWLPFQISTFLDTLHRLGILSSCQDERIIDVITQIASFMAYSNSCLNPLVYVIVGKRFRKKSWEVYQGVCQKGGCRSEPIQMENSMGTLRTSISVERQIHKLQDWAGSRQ

[11] = target: T4, Muscarinic acetylcholine receptor M2 (Homo sapiens, UniProt P08172); type: cell membranes, CHO-K1, Membrane; conditions: cho-k1; note: in other assays of this panel Not Active means under 50% inhibition at 10 µM
T4 sequence (P08172 whole entry): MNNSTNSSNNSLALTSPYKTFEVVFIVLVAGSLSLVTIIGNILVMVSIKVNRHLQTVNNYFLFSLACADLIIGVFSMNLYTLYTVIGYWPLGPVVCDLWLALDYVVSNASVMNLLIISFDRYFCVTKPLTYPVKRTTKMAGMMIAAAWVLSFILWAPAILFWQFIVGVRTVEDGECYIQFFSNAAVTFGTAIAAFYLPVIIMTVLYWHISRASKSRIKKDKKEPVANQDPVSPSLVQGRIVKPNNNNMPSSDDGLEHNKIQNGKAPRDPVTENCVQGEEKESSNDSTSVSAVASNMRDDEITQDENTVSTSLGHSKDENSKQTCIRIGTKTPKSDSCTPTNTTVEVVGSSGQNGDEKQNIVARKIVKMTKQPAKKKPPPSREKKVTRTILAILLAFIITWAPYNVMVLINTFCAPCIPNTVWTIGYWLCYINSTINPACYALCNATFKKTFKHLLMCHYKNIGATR

[12] = DRUGMATRIX: Calcium Channel Type L, Dihydropyridine radioligand binding (ligand: [3H] Nitrendipine); type: cell membranes, Rattus norvegicus, Wistar, Cerebral cortex, Membrane; conditions: Not Active = under 50% inhibition at 10 µM
[13] = DRUGMATRIX: Sigma2 radioligand binding (ligand: [3H] Ifenprodil); type: cell membranes, Rattus norvegicus, Wistar, Brain, Membrane; conditions: Not Active = under 50% inhibition at 10 µM
[14] = target: Beta-2 adrenergic receptor (Homo sapiens, UniProt P07550); assay: DRUGMATRIX: Adrenergic beta2 radioligand binding (ligand: [3H] CGP-12177); type: cell membranes, Membrane; conditions: cho; Not Active = under 50% inhibition at 10 µM
Beta-2 adrenergic receptor, sequence (P07550 whole entry): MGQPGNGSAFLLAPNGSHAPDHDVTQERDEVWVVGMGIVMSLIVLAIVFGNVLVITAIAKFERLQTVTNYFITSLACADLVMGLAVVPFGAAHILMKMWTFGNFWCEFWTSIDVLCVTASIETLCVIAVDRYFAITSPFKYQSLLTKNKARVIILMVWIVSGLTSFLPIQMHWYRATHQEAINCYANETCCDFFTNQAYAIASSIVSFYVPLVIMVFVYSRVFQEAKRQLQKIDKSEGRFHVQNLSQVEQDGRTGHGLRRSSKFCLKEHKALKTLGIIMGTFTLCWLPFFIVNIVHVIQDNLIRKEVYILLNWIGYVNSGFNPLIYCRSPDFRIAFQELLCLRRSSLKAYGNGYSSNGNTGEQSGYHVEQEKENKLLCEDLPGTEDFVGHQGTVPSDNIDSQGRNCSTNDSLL

Cc1ncc([N+](=O)[O-])n1CC(C)O (stereo unspecified) [SECNIDAZOLE]
Not Active: IC50 (Calcitonin receptor) | IC50 [1] | IC50 [2] | IC50 [3] | IC50 [4] | Ki [4] | IC50 [5] | Ki [5] | IC50 [6] | IC50 [7] | Ki [7] | IC50 [8] | IC50 [9] | Ki [9] | IC50 [10] | Ki [10] | IC50 (B2 bradykinin receptor) | IC50 [11] | IC50 [12] | Ki [12] | IC50 [13] | Ki [13] | IC50 [14]

CN[C@@H]1[C@@H](O)[C@@H](O[C@@H]2[C@@H](O)[C@H](O[C@H]3OC(CN)=CC[C@H]3N)[C@@H](N)C[C@H]2N)OC[C@]1(C)O [SISOMICIN]
Not Active: IC50 (Calcitonin receptor) | IC50 [1] | IC50 [2] | IC50 [3] | IC50 [4] | Ki [4] | IC50 [5] | Ki [5] | IC50 [6] | IC50 [7] | Ki [7] | IC50 [8] | IC50 [9] | Ki [9] | IC50 [10] | Ki [10] | IC50 (B2 bradykinin receptor) | IC50 [11] | IC50 [12] | Ki [12] | IC50 [13] | Ki [13] | IC50 [14]

CC(=O)S[C@@H]1CC2=CC(=O)CC[C@]2(C)[C@H]2CC[C@@]3(C)[C@@H](CC[C@@]34CCC(=O)O4)[C@H]12 [SPIRONOLACTONE]
Not Active: IC50 (Calcitonin receptor) | IC50 [1] | IC50 [2] | IC50 [3] | IC50 [4] | Ki [4] | IC50 [5] | Ki [5] | IC50 [6] | IC50 [7] | Ki [7] | IC50 [8] | IC50 [9] | Ki [9] | IC50 [10] | Ki [10] | IC50 (B2 bradykinin receptor) | IC50 [11] | IC50 [12] | Ki [12] | IC50 [13] | Ki [13] | IC50 [14]

C[C@]12Cc3c[nH]nc3C[C@@H]1CC[C@@H]1[C@@H]2CC[C@@]2(C)[C@H]1CC[C@]2(C)O [STANOZOLOL]
Not Active: IC50 (Calcitonin receptor) | IC50 [1] | IC50 [2] | IC50 [3] | IC50 [4] | Ki [4] | IC50 [5] | Ki [5] | IC50 [6] | IC50 [7] | Ki [7] | IC50 [8] | IC50 [9] | Ki [9] | IC50 [10] | Ki [10] | IC50 (B2 bradykinin receptor) | IC50 [11] | IC50 [12] | Ki [12] | IC50 [13] | Ki [13] | IC50 [14]

CN(N=O)C(=O)N[C@@H](C=O)[C@@H](O)[C@H](O)[C@H](O)CO [STREPTOZOCIN]
Not Active: IC50 (Calcitonin receptor) | IC50 [1] | IC50 [2] | IC50 [3] | IC50 [4] | Ki [4] | IC50 [5] | Ki [5] | IC50 [6] | IC50 [7] | Ki [7] | IC50 [8] | IC50 [9] | Ki [9] | IC50 [10] | Ki [10] | IC50 (B2 bradykinin receptor) | IC50 [11] | IC50 [12] | Ki [12] | IC50 [13] | Ki [13] | IC50 [14]

Cc1cc(NS(=O)(=O)c2ccc(N)cc2)no1 [SULFAMETHOXAZOLE]
Not Active: IC50 (Calcitonin receptor) | IC50 [1] | IC50 [2] | IC50 [3] | IC50 [4] | Ki [4] | IC50 [5] | Ki [5] | IC50 [6] | IC50 [7] | Ki [7] | IC50 [8] | IC50 [9] | Ki [9] | IC50 [10] | Ki [10] | IC50 (B2 bradykinin receptor) | IC50 [11] | IC50 [12] | Ki [12] | IC50 [13] | Ki [13] | IC50 [14]

Nc1ccc(S(N)(=O)=O)cc1 [SULFANILAMIDE]
Not Active: IC50 (Calcitonin receptor) | IC50 [1] | IC50 [2] | IC50 [3] | IC50 [4] | Ki [4] | IC50 [5] | Ki [5] | IC50 [6] | IC50 [7] | Ki [7] | IC50 [8] | IC50 [9] | Ki [9] | IC50 [10] | Ki [10] | IC50 (B2 bradykinin receptor) | IC50 [11] | IC50 [12] | Ki [12] | IC50 [13] | Ki [13] | IC50 [14]
